Reference: PubChem BioAssay (NCI)
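Results reflect a 48-hour exposure of cells in 96-well plates to compound at five concentrations. The concentration for 50% growth inhibition is given as GI50. TGI is the concentration that stops growth completely.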

Columns and labels:
Test in all cases: NCI-60 cell line screen, 48 h
786-0 renal = test system: 786-0 renal
A498 renal = test system: A498 renal
A549 NSCLC = test system: A549 NSCLC
ACHN renal = test system: ACHN renal
BT-549 breast = test system: BT-549 breast
CAKI-1 renal = test system: CAKI-1 renal
CCRF-CEM leukemia = test system: CCRF-CEM leukemia
COLO 205 colon = test system: COLO 205 colon
DU-145 prostate = test system: DU-145 prostate
EKVX NSCLC = test system: EKVX NSCLC
HCC-2998 colon = test system: HCC-2998 colon
HCT-116 colon = test system: HCT-116 colon
HCT-15 colon = test system: HCT-15 colon
HOP-62 NSCLC = test system: HOP-62 NSCLC
HOP-92 NSCLC = test system: HOP-92 NSCLC
HS 578T breast = test system: HS 578T breast
HT29 colon = test system: HT29 colon
IGROV1 ovarian = test system: IGROV1 ovarian
KM12 colon = test system: KM12 colon
LOX IMVI melanoma = test system: LOX IMVI melanoma
M14 melanoma = test system: M14 melanoma
MALME-3M melanoma = test system: MALME-3M melanoma
MCF7 breast = test system: MCF7 breast
MDA-MB-231 breast = test system: MDA-MB-231 breast
MDA-MB-435 = test system: MDA-MB-435
MOLT-4 leukemia = test system: MOLT-4 leukemia
NCI-H226 lung = test system: NCI-H226 lung
NCI-H23 lung = test system: NCI-H23 lung
NCI-H460 lung = test system: NCI-H460 lung
NCI-H522 lung = test system: NCI-H522 lung
NCI/ADR-RES ovarian = test system: NCI/ADR-RES ovarian
OVCAR-3 ovarian = test system: OVCAR-3 ovarian
OVCAR-4 ovarian = test system: OVCAR-4 ovarian
OVCAR-5 ovarian = test system: OVCAR-5 ovarian
OVCAR-8 ovarian = test system: OVCAR-8 ovarian
PC-3 prostate = test system: PC-3 prostate
RPMI-8226 leukemia = test system: RPMI-8226 leukemia
RXF 393 renal = test system: RXF 393 renal
SF-268 CNS = test system: SF-268 CNS
SF-295 CNS = test system: SF-295 CNS
SF-539 CNS = test system: SF-539 CNS
SK-MEL-2 melanoma = test system: SK-MEL-2 melanoma
SK-MEL-28 melanoma = test system: SK-MEL-28 melanoma
SK-MEL-5 melanoma = test system: SK-MEL-5 melanoma
SK-OV-3 ovarian = test system: SK-OV-3 ovarian
SN12C renal = test system: SN12C renal
SNB-19 CNS = test system: SNB-19 CNS
SNB-75 CNS = test system: SNB-75 CNS
SR leukemia = test system: SR leukemia
SW-620 colon = test system: SW-620 colon
T-47D breast = test system: T-47D breast
TK-10 renal = test system: TK-10 renal
U251 CNS = test system: U251 CNS
UACC-257 melanoma = test system: UACC-257 melanoma
UACC-62 melanoma = test system: UACC-62 melanoma
UO-31 renal = test system: UO-31 renal

Oc1ccc(-c2cn3ccsc3n2)cc1O was tested, and the GI50 (786-0 renal) was 36.6 µM, the TGI (786-0 renal) was greater than 100 µM and the GI50 (A498 renal) was 25.9 µM. The TGI (A498 renal) was 83.6 µM, the GI50 (A549 NSCLC) was 72.8 µM and the TGI (A549 NSCLC) was greater than 100 µM. It also gave a GI50 (ACHN renal) of 22 µM, a TGI (ACHN renal) of 56.3 µM and a GI50 (BT-549 breast) of 10.2 µM. It also gave a TGI (BT-549 breast) of 30.7 µM, a GI50 (CAKI-1 renal) of 26.3 µM and a TGI (CAKI-1 renal) greater than 100 µM. The GI50 (CCRF-CEM leukemia) was 4.41 µM, the TGI (CCRF-CEM leukemia) was 29.6 µM and the GI50 (COLO 205 colon) was 29.9 µM. For the same molecule, the TGI (COLO 205 colon) was greater than 100 µM, the GI50 (DU-145 prostate) was 28.7 µM and the TGI (DU-145 prostate) was greater than 100 µM. It also gave a GI50 (EKVX NSCLC) of 16.7 µM, a TGI (EKVX NSCLC) of 38.9 µM and a GI50 (HCC-2998 colon) of 78 µM. The TGI (HCC-2998 colon) was greater than 100 µM, the GI50 (HCT-116 colon) was 18.1 µM and the TGI (HCT-116 colon) was 37.8 µM. It also gave a GI50 (HCT-15 colon) of 37.8 µM, a TGI (HCT-15 colon) greater than 100 µM and a GI50 (HOP-62 NSCLC) of 43.2 µM. For the same molecule, the TGI (HOP-62 NSCLC) was greater than 100 µM, the GI50 (HOP-92 NSCLC) was 23 µM and the TGI (HOP-92 NSCLC) was 78.5 µM. The GI50 (HS 578T breast) was 0.203 µM, the TGI (HS 578T breast) was 22.4 µM and the GI50 (HT29 colon) was 29.5 µM. For the same molecule, the TGI (HT29 colon) was greater than 100 µM, the GI50 (IGROV1 ovarian) was 21.3 µM and the TGI (IGROV1 ovarian) was greater than 100 µM. It also gave a GI50 (KM12 colon) of 27.7 µM, a TGI (KM12 colon) greater than 100 µM and a GI50 (LOX IMVI melanoma) of 18.1 µM. For the same molecule, the TGI (LOX IMVI melanoma) was 41.7 µM, the GI50 (M14 melanoma) was 26.1 µM and the TGI (M14 melanoma) was 75.3 µM. For the same molecule, the GI50 (MALME-3M melanoma) was 30.8 µM, the TGI (MALME-3M melanoma) was 84.4 µM and the GI50 (MCF7 breast) was 18.3 µM. The TGI (MCF7 breast) was greater than 100 µM, the GI50 (MDA-MB-231 breast) was 17.6 µM and the TGI (MDA-MB-231 breast) was 44.2 µM. It also gave a GI50 (MDA-MB-435) of 22.1 µM, a TGI (MDA-MB-435) of 47.8 µM and a GI50 (MOLT-4 leukemia) of 11 µM. It also gave a TGI (MOLT-4 leukemia) of 55.4 µM, a GI50 (NCI-H226 lung) of 20.9 µM and a TGI (NCI-H226 lung) of 60.2 µM. For the same molecule, the GI50 (NCI-H23 lung) was 46.3 µM, the TGI (NCI-H23 lung) was greater than 100 µM and the GI50 (NCI-H460 lung) was 45.8 µM. The TGI (NCI-H460 lung) was greater than 100 µM, the GI50 (NCI-H522 lung) was 11.5 µM and the TGI (NCI-H522 lung) was 33.2 µM. The GI50 (NCI/ADR-RES ovarian) was greater than 100 µM, the TGI (NCI/ADR-RES ovarian) was greater than 100 µM and the GI50 (OVCAR-3 ovarian) was 15.6 µM. The TGI (OVCAR-3 ovarian) was 46.4 µM, the GI50 (OVCAR-4 ovarian) was 32.7 µM and the TGI (OVCAR-4 ovarian) was greater than 100 µM. It also gave a GI50 (OVCAR-5 ovarian) of 38.9 µM, a TGI (OVCAR-5 ovarian) greater than 100 µM and a GI50 (OVCAR-8 ovarian) of 35.8 µM. For the same molecule, the TGI (OVCAR-8 ovarian) was greater than 100 µM, the GI50 (PC-3 prostate) was 21.7 µM and the TGI (PC-3 prostate) was greater than 100 µM. For the same molecule, the GI50 (RPMI-8226 leukemia) was 12.1 µM, the TGI (RPMI-8226 leukemia) was 65.4 µM and the GI50 (RXF 393 renal) was 78 µM. For the same molecule, the TGI (RXF 393 renal) was greater than 100 µM, the GI50 (SF-268 CNS) was 27.8 µM and the TGI (SF-268 CNS) was greater than 100 µM. It also gave a GI50 (SF-295 CNS) of 69.6 µM, a TGI (SF-295 CNS) greater than 100 µM and a GI50 (SF-539 CNS) of 19.7 µM. The TGI (SF-539 CNS) was 79.6 µM, the GI50 (SK-MEL-2 melanoma) was 35.1 µM and the TGI (SK-MEL-2 melanoma) was greater than 100 µM. It also gave a GI50 (SK-MEL-28 melanoma) of 32.9 µM, a TGI (SK-MEL-28 melanoma) greater than 100 µM and a GI50 (SK-MEL-5 melanoma) of 10.5 µM. It also gave a TGI (SK-MEL-5 melanoma) of 26.7 µM, a GI50 (SK-OV-3 ovarian) greater than 100 µM and a TGI (SK-OV-3 ovarian) greater than 100 µM. For the same molecule, the GI50 (SN12C renal) was 18.5 µM, the TGI (SN12C renal) was 37.8 µM and the GI50 (SNB-19 CNS) was 49.9 µM. For the same molecule, the TGI (SNB-19 CNS) was greater than 100 µM, the GI50 (SNB-75 CNS) was 55.1 µM and the TGI (SNB-75 CNS) was greater than 100 µM. For the same molecule, the GI50 (SR leukemia) was 10.6 µM, the TGI (SR leukemia) was 41.4 µM and the GI50 (SW-620 colon) was 11.5 µM. For the same molecule, the TGI (SW-620 colon) was 70.5 µM, the GI50 (T-47D breast) was 32.4 µM and the TGI (T-47D breast) was greater than 100 µM. For the same molecule, the GI50 (TK-10 renal) was 63.1 µM, the TGI (TK-10 renal) was greater than 100 µM and the GI50 (U251 CNS) was 21.5 µM. For the same molecule, the TGI (U251 CNS) was 46.7 µM, the GI50 (UACC-257 melanoma) was greater than 100 µM and the TGI (UACC-257 melanoma) was greater than 100 µM. The GI50 (UACC-62 melanoma) was 19.6 µM, the TGI (UACC-62 melanoma) was 43.9 µM and the GI50 (UO-31 renal) was 16 µM. It also gave a TGI (UO-31 renal) greater than 100 µM.
